Counter-ions that a name gives are not always drawn. Like-named read-outs stand apart in the source and are kept apart here.
How the values were obtained:
DOR = biological target: T1, DOR (Homo sapiens, UniProt P41143); assay: competitive radioligand binding assay, DOR ([3H]diprenorphine, CHO cell membranes); settings: read-out: Ki (nM) DOR
T1 construct: expressed in transfected cells; host or cells: CHO

morphine-pelleted mice = assay: opioid withdrawal study in morphine-pelleted mice; settings: for withdrawal symptoms (wet-dog shakes, escape jumps, paw tremors): 1 mg/kg s.c., compared to 1 mg/kg NLX
MOR [1] = biological target: T2, MOR (Mus musculus, UniProt P42866); assay: MOR [35S]GTPγS functional assay (MOR-CHO membranes); assay type: biochemical; set-up: expressed in transfected cells; host or cells: CHO; settings: read-out: MOR [35S]GTPγS Binding % Emax of DAMGO
Method: The [^35S]GTPγS functional assay was conducted to determine the efficacy of the compounds at the MOR. […] The Bradford protein assay was utilized to determine and adjust the concentration of protein required for the assay. Nonspecific binding was determined with 20 μM unlabeled GTPγS. Furthermore, 3 μM DAMGO was included in the assay as the maximally effective concentration of a full agonist for the MOR. After incubation, the bound radioactive ligand was separated from the free radioligand by filtration through a GF/B glass fiber filter paper and rinsed three times with ice-cold wash buffer (50 mM Tris-HCl, pH 7.2) using the Brandel harvester. Bound radioactivity was determined by liquid scintillation counting. All assays were determined in duplicate and repeated at least three times. Net stimulated [^35S]GTPγS binding was defined as agonist-stimulated minus basal binding in the absence of agonist. Percent of DAMGO-stimulated [^35S]GTPγS binding was defined as (net-stimulated binding by ligand/net-stimulated binding by 3 μM DAMGO)×100%.
Results were reported as mean values ±SEM.
The [^35S]-GTPγS binding assay was carried out as well to determine the functionality on the MOR of each compound. […] The [^35S]GTPγS functional assay was conducted to determine the efficacy of the compounds at the MOR, KOR and DOR. […] The Bradford protein assay was utilized to determine and adjust the concentration of protein required for the assay. Nonspecific binding was determined with 20 μM unlabeled GTPγS. Furthermore, 3 μM DAMGO/U50488H/SNC80 was included in the assay as the maximally effective concentration of a full agonist for the MOR/KOR/DOR. After incubation, the bound radioactive ligand was separated from the free radioligand by filtration through a GF/B glass fiber filter paper using a Brandel harvester. Bound radioactivity was determined by liquid scintillation counting. All assays were determined in duplicate and repeated at least three times. Net stimulated [^35S]GTPγS binding was defined as agonist-stimulated minus basal binding in the absence of agonist. Percent of DAMGO/U50488H/SNC80 stimulated [^35S]GTPγS binding was defined as (net-stimulated binding by ligand/net-stimulated binding by 3 μM DAMGO U50488H/SNC80)×100%.

male Swiss Webster mice [2] = assay: warm-water tail immersion (tail flick / tail-withdrawal) assay, antinociception; assay type: in vivo, mouse; settings: Example 1 compounds; 10 mg/kg s.c., 20 min after injection
Method: In this assay, the duration for which mice kept their tails in the warm water was recorded.
All thirty-six compounds' antinociception were examined in tail immersion assay first to preclude any opioid receptor agonists.
Swiss Webster mice (six male mice for each group, 25-35 g, 6-8 weeks old) were used in this assay. Antinociception for all compounds was examined in male Swiss Webster mice. […] To prevent tissue damage, a 10 s maximum cutoff time was imposed. Antinociceptive response was calculated as the percentage of maximum possible effect (% MPE), where % MPE=[(test−control latency)/(10−control latency)]×100.
Warm-water tail immersion assay is a well-established assay for evaluating opioid analgesics, especially MOR agonists. […] In this context, all 24 compounds were first evaluated for their acute antinociception tail-withdrawal assay (FIG. 5A).
The tail-withdrawal test was performed using a water bath with the temperature maintained at 56±0.1° C. Baseline latency was measured before any injections. Each mouse was gently wrapped in a cloth with only the tail exposed. The distal one-third of the tail was immersed perpendicularly in water, and the mouse rapidly flicked the tail from the bath was seen as the first sign of discomfort. The duration of time the tail remained in the water bath was counted as the baseline latency. Untreated mice with baseline latency reaction times ranging from 2 to 4 seconds were used. Test latency was obtained 20 min later after each injection. A 10-second maximum cutoff latency was used to prevent any tissue damage. Antinociception was quantified as the percentage of maximal possible effect (% MPE), which was calculated as % MPE=[(test latency−control latency)/(10−control latency)]×100. The % MPE value was calculated for each mouse using 6 mice per group. Testing compounds were given 10 mg/kg (s.c.) to each mouse.

KOR [3] = biological target: T3, KOR (Mus musculus, UniProt P33534); assay: competitive radioligand binding assay, KOR ([3H]diprenorphine, CHO cell membranes); set-up: expressed in transfected cells; host or cells: CHO; settings: read-out: Ki (nM) KOR
MOR [4] = biological target: T2, MOR; settings: read-out: Ki (nM) MOR; Example 1 compounds (Tables 1, 2)
[5] = biological target: Human recombinant opioid receptors (MOR) (Homo sapiens, UniProt P35372); settings: read-out: MOR [35S]-GTPγS Binding EC50; MNTX, reported data; cited from earlier work
mice = assay: carmine red dye study (GI tract motility, morphine-induced constipation)
[6] = biological target: Human recombinant opioid receptors (KOR) (Homo sapiens, UniProt P41145); settings: read-out: KOR [35S]-GTPγS binding EC50; MNTX, reported data; cited from earlier work
[7] = male rats, oral administration; cited from earlier work
KOR [8] = biological target: T3, KOR; settings: read-out: Ki (nM) KOR; reference data adopted from literature; cited from earlier work
male Swiss Webster mice [9] = settings: reference compounds, literature / previous studies; cited from earlier work
[10] = Example 1 compounds (Tables 1, 2)

For “17-Cyclopropylmethyl-3,14β-dihydroxy-4,5α-epoxy-6α-(2′-thienylacetamido)morphinan hydrochloride [Example 1 compound 27]”, the Ki (DOR; [10]) was 6.92 ± 1.63 nM.

“17-Cyclopropylmethyl-3,14β-dihydroxy-4,5α-epoxy-6β-(2′-thienylacetamido)morphinan hydrochloride [Example 1 compound 28]” gave a Ki (DOR; [10]) of 64.9 ± 2.38 nM.

In the case of `O=C(N[C@@H]1CC[C@@]2(O)[C@H]3Cc4ccc(O)c5c4[C@@]2(CCN3CC2CC2)[C@H]1O5)c1cccs1` [Example 1 compound 26, 17-Cyclopropylmethyl-3,14β-dihydroxy-4,5α-epoxy-6β-(2′-thienylcarboxamido)morphinan hydrochloride], the “withdrawal symptoms (wet-dog shakes, escape jumps, paw tremors)” value (morphine-pelleted mice) is reported as “significantly fewer wet-dog shakes, escape jumps, and paw tremors” and the “withdrawal symptoms at higher doses” value (morphine-pelleted mice; 5 mg/kg and above, s.c.) is reported as “did not precipitate significant withdrawal symptoms at doses as high as 10 times that of NLX”.

Compound `O=C(CCc1cccs1)N[C@H]1CC[C@@]2(O)[C@H]3Cc4ccc(O)c5c4[C@@]2(CCN3CC2CC2)[C@H]1O5` [Example 1 compound 29, 17-Cyclopropylmethyl-3,14β-dihydroxy-4,5α-epoxy-6α-[3′-(thiophen-2″yl)propanamido]morphinan hydrochloride] has an Emax (MOR [1]) of 43.7 ± 1.71%.

In the case of `Cl.O=C(CCc1cccs1)N[C@@H]1CC[C@@]2(O)[C@H]3Cc4ccc(O)c5c4[C@@]2(CCN3CC2CC2)[C@H]1O5` [Example 1 compound 30, 17-Cyclopropylmethyl-3,14β-dihydroxy-4,5α-epoxy-6β-[3′-(thiophen-2 yl)propanamido]morphinan hydrochloride], the “antinociceptive effect (% MPE, in words)” value (male Swiss Webster mice [2]) is reported as “exhibited antinociception”, the Ki (KOR [3]) is reported as 0.23 ± 0.02 nM and the Ki (MOR [4]) is reported as 0.26 ± 0.01 nM. For the same compound, the Ki (DOR) was 4.87 ± 1.19 nM.

`O=C(Cc1ccsc1)N[C@H]1CC[C@@]2(O)[C@H]3Cc4ccc(O)c5c4[C@@]2(CCN3CC2CC2)[C@H]1O5` [Example 1 compound 33, 17-Cyclopropylmethyl-3,14β-dihydroxy-4,5α-epoxy-6α-(3′-thienylacetamido)morphinan hydrochloride] gave an Emax (MOR [1]) of 28.6 ± 1.15%.

Compound `O=C(Cc1ccsc1)N[C@@H]1CC[C@@]2(O)[C@H]3Cc4ccc(O)c5c4[C@@]2(CCN3CC2CC2)[C@H]1O5` [Example 1 compound 34, 17-Cyclopropylmethyl-3,14β-dihydroxy-4,5α-epoxy-6β-(3′-thienylacetamido)morphinan hydrochloride] has an Emax (MOR [1]) of 26.5 ± 3.17%.

For `C[N@+]1(CC2CC2)CC[C@]23c4c5ccc(O)c4O[C@H]2C(=O)CC[C@@]3(O)[C@H]1C5` [MNTX, methylnaltrexone], the EC50 [5] is listed as over 10000 nM, the “blockage of GI motility inhibition by morphine (in words)” value (mice; 10 mg/kg oral gavage, morphine 5 mg/kg) is listed as “no blockage was observed” and the EC50 [6] is listed as over 10000 nM. The oral bioavailability [7] was under 1%.

For `O=C(NC1CCC2(O)C3Cc4ccc(O)c5c4C2(CCN3CC2CC2)C1O5)c1ccncc1` (stereo not drawn) [NAP, 17-cyclopropylmethyl-3,14-dihydroxy-4,5α-epoxy-6β-[(4′-pyridyl)carboxamido]morphinan], the Ki (KOR [8]) is listed as 278 ± 8 nM.

In the case of `O=C(N[C@@H]1CC[C@@]2(O)[C@H]3Cc4ccc(O)c5c4C2(CCN3CC2CC2)[C@H]1O5)c1ccncc1F` [NFP], the “AD50 mg/kg (95% CL) to antagonize morphine mediated antinociception” value (male Swiss Webster mice [9]) is listed as 2.82 mg/kg.

In the case of `C=CCN1CC[C@]23c4c5ccc(O)c4O[C@H]2C(=O)CC[C@@]3(O)[C@H]1C5` [NLX, naloxone, reference compound], the “withdrawal symptoms (wet-dog shakes, escape jumps, paw tremors)” value (morphine-pelleted mice) is given as “precipitated withdrawal symptoms” and the “AD50 mg/kg (95% CL) to antagonize morphine mediated antinociception” value (male Swiss Webster mice [9]) is given as 0.05 mg/kg.

With `CN1CC[C@]23c4c5ccc(O)c4O[C@H]2[C@@H](O)C=C[C@H]3[C@H]1C5` [morphine] the “elongation of pellet defecation time compared to naïve group” value (mice; morphine 10 mg/kg s.c.) was 124 min.

From patent US20250195504A1, “NALTREXAMINE DERIVATIVES BEARING 5-MEMBER HETEROCYCLIC RING SYSTEMS AND OPIOID RECEPTOR MODULATORS” (VIRGINIA COMMONWEALTH UNIVERSITY, priority 2022, published 2025)
